Source: patent publication US12594261B2, “Use of heterocyclic derivatives with cardiomyocyte proliferation activity for treatment of heart diseases” (SHANGHAI EAST HOSPITAL (EAST HOSPITAL, TONGJI UNIVERSITY …, priority 2019, dated 2026)

Test system: neonatal rat ventricular myocytes (NRVMs)
Assay: Myocyte proliferation assay (EdU) in neonatal rat ventricular myocytes
Format: cell-based
Settings: Rattus norvegicus, Ventricular myocyte, growth relative to blank myocyte growth without compound added; for activation at 1 µM: 1 uM compound; for activation at 3 µM: 3 uM compound; for activation at 10 µM: 10 uM compound
Method: 1. Isolation of and Culture Neonatal Rat Ventricular Myocytes (NRVMs)
Ventricles from neonatal rats were separated from the atria, cut into small pieces (about 2×2 mm^2) and then dissociated in Ca^2+-free HBSS containing 0.125 mg ml-1 trypsin (Gibco), 10 μg ml-1 DNase II (Sigma) and 0.1 mg ml-1 collagenase type IV (Sigma). The digestion was carried out under constant stirring at 37° C. for 5 min. The supernatant was collected with FBS (Gibco) after each digestion period. After digestion, the collected supernatant was centrifuged at 1000 g for 10 min at room temperature, and then cell pellets were resuspended in DMEM (Gibco) supplemented with 10% FBS and with 100 uM 5-bromo-2′-deoxyuridine (Sigma). The resuspended cells were passed through a cell strainer ([…], BD Falcon) and seeded onto 100-mm plastic dishes for 2 h at 37° C. in a 5% CO2 to remove fibroblasts, the supernatant was then collected and plated onto 1% gelatin (Sigma)-coated dishes. 24 h after the seeding, the medium was changed to DMEM (Gibco) containing 2% FBS (Gibco), 1% insulin-transferrin-selenium (ITS; Gibco), 1% Penicillin-Streptomycin (Gibco). After 24 hours of low serum culture, remove the medium with DMEM (Gibco) containing 6% FBS (Gibco), 1% insulin-transferrin-selenium (ITS; Gibco), 1% Penicillin-Streptomycin (Gibco), different concentrations of compounds (the compounds were pre-diluted in the medium and the drug concentration was 10 uM, 3 uM, 1 uM, fully mixed). After 36 h add Edu substrate (Invitrogen) according to the manufacturer's guidelines, and then after 12 h cell can be used.
2.1. Immobilization: Remove the medium and fix the cells with […] in 200 ul (whichever is covered) for 15 min and wash the cells twice with 500 ul of PBS for 5 min each time.
2.2. Broken membrane: Add 200 ul of 0.3% Triton-X 100 (diluted in PBS) to each well, incubate for 10-15 min at room temperature (the time should not be too long), and wash the cells twice with 500 ul of PBS for 5 min each time.
2.3. Blocking: Add 200 ul of 10% normal goat serum (diluted with 0.1% PBST) to each well, incubate for 1 h at room temperature, and wash twice with 500 ul of 0.1% PBST for 5 min each time.
2.4. Primary antibody: dilute the primary antibody (abcam, ab8295) to blocking solution at a ratio of 1:200, add 100 ul per well, incubate for 1 h at room temperature (may be slightly longer than 2-3 h), wash the cells twice with 500 ul 0.1% PBST for 5 min each time.
2.5. Secondary antibody: Dilute the fluorescently labeled secondary antibody (abcam, ab150117) into blocking solution at a ratio of 1:200, add 100 ul per well, incubate for 1 h at room temperature (the time should not be too long), wash the cells twice with 0.1% PBST for 5 min each time, pay attention to the whole process. Protected from light.
2.6. Edu staining (Invitrogen C10338)
2.6.1 Prepare Click-iT® reaction cocktail according to Table 3. It was important to add the ingredients in the order listed in the table; otherwise, the reaction would not proceed optimally. Use the Click-iT® reaction cocktail within 15 minutes of preparation.
2.6.2 Add 0.1 mL of Click-iT® reaction cocktail to each well containing a coverslip. Rock the plate briefly to ensure that the reaction cocktail is distributed evenly over the coverslip.
2.6.3 Incubate the plate for 30 minutes at room temperature, protected from light.
2.6.4 Remove the reaction cocktail, then wash the cells twice with 0.1% PBST for 5 min each time.
2.7. DAPI staining: DAPI stain was diluted to PBS at a ratio of 1:1000, 100 ul per well, incubated for 30 min at room temperature, and the cells were washed twice with PBS for 5 min each.
We used Molecular Devices' Image Xpress Micro Confocal for high-throughput photo and data analysis.

Row | SMILES | activation at 1 µM [%] | activation at 3 µM [%] | activation at 10 µM [%]
1 | O=C1NC(NCCN2CCOCC2)=N/C1=C\c1ccc2c(c1)OCO2 [TJU-B004, (4Z)-4-[(2H-1,3-benzodioxol-5-yl)methylidene]-2-{[2-(morpholin-4-yl)ethyl]amino}-4,5-dihydro-1H-imidazol-5-one] | < 10 | 10 to 50 | > 50
2 | O=C1NC(Nc2ccccc2)=NC1Cc1ccc2c(c1)OCO2 (centres unmarked) [TJU-B005, 4-[(2H-1,3-benzodioxol-5-yl)methyl]-2-(phenylamino)-4,5-dihydro-1H-imidazol-5-one] | 10 to 50 | < 10 | > 50
3 | COc1ccc(NC2=N/C(=C\c3ccc4c(c3)OCCO4)C(=O)N2)cc1 [TJU-B006, (4Z)-4-[(2,3-dihydro-1,4-benzodioxin-6-yl)methylidene]-2-[(4-methoxyphenyl)amino]-4,5-dihydro-1H-imidazol-5-one] | 10 to 50 | 10 to 50 | > 50
4 | O=C1NC(Nc2ccccc2)=N/C1=C\c1ccc2c(c1)OCCO2 [TJU-B007, (4Z)-4-[(2,3-dihydro-1,4-benzodioxin-6-yl)methylidene]-2-(phenylamino)-4,5-dihydro-1H-imidazol-5-one] | < 10 | 10 to 50 | > 50
5 | COc1ccc(NC2=N/C(=C\c3ccc4c(c3)OCO4)C(=O)N2)cc1 [TJU-B009, (4Z)-4-[(2H-1,3-benzodioxol-5-yl)methylidene]-2-[(4-methoxyphenyl)amino]-4,5-dihydro-1H-imidazol-5-one] | 10 to 50 | 10 to 50 | > 50
6 | O=C1NC(Nc2ccccc2)=N/C1=C\c1cc2c(cc1Cl)OCO2 [TJU-B011, (4Z)-4-[(6-chloro-2H-1,3-benzodioxol-5-yl)methylidene]-2-(phenylamino)-4,5-dihydro-1H-imidazol-5-one] | 10 to 50 | 10 to 50 | > 50
7 | C/C(=C1/N=C(Nc2ccccc2)NC1=O)c1ccc2c(c1)OCO2 [TJU-B013, (4Z)-4-[1-(2H-1,3-benzodioxol-5-yl)ethylidene]-2-(phenylamino)-4,5-dihydro-1H-imidazol-5-one] | < 10 | 10 to 50 | > 50
8 | CN1C(=O)/C(=C/c2ccc3c(c2)OCO3)N=C1Nc1ccccc1 [TJU-B014, (4Z)-4-[(2H-1,3-benzodioxol-5-yl)methylidene]-1-methyl-2-(phenylamino)-4,5-dihydro-1H-imidazol-5-one] | < 10 | 10 to 50 | > 50
9 | CC(C)NC1=N/C(=C\c2ccc3c(c2)OCO3)C(=O)N1C [TJU-B016, (4Z)-4-[(2H-1,3-benzodioxol-5-yl)methylidene]-1-methyl-2-[(propan-2-yl)amino]-4,5-dihydro-1H-imidazol-5-one] | < 10 | 10 to 50 | > 50
10 | O=C1NC(NCc2ccccc2)=N/C1=C\c1ccc2c(c1)OCO2 [TJU-B019, (4Z)-4-[(2H-1,3-benzodioxol-5-yl)methylidene]-2-(benzylamino)-4,5-dihydro-1H-imidazol-5-one] | < 10 | < 10 | > 50
11 | Nc1ccc(NC2=N/C(=C\c3ccc4c(c3)OCO4)C(=O)N2)cc1 [TJU-B021, (4Z)-2-[(4-aminophenyl)amino]-4-[(2H-1,3-benzodioxol-5-yl)methylidene]-4,5-dihydro-1H-imidazol-5-one] | < 10 | < 10 | > 50
12 | O=C1NC(NCCN2CCOCC2)=N/C1=C\c1ccc2c(c1)OCCO2 [TJU-B026, (4Z)-4-[(2,3-dihydro-1,4-benzodioxin-6-yl)methylidene]-2-{[2-(morpholin-4-yl)ethyl]amino}-4,5-dihydro-1H-imidazol-5-one] | 10 to 50 | < 10 | > 50
13 | O=C1NC(Nc2ccc3c(c2)OCO3)=N/C1=C\c1ccc2c(c1)OCO2 [TJU-B027, (4Z)-2-[(2H-1,3-benzodioxol-5-yl)amino]-4-[(2H-1,3-benzodioxol-5-yl)methylidene]-4,5-dihydro-1H-imidazol-5-one] | < 10 | < 10 | 10 to 50
14 | O=C1NC(Nc2ccccc2)=N/C1=C\c1ccc2c(c1)OC(F)(F)O2 [TJU-B028, (4Z)-4-[(2,2-difluoro-2H-1,3-benzodioxol-5-yl)methylidene]-2-(phenylamino)-4,5-dihydro-1H-imidazol-5-one] | < 10 | < 10 | 10 to 50
15 | O=C1NC(NCC2CC2)=N/C1=C\c1ccc2c(c1)OCO2 [TJU-B029, (4Z)-4-[(2H-1,3-benzodioxol-5-yl)methylidene]-2-[(cyclopropylmethyl)amino]-4,5-dihydro-1H-imidazol-5-one] | < 10 | < 10 | 10 to 50
16 | O=C1NC(Nc2cccnc2)=N/C1=C\c1ccc2c(c1)OCO2 [TJU-B031, (4Z)-4-[(2H-1,3-benzodioxol-5-yl)methylidene]-2-[(pyridin-3-yl)amino]-4,5-dihydro-1H-imidazol-5-one] | < 10 | < 10 | 10 to 50
17 | CNC1=N/C(=C\c2ccc3c(c2)OCO3)C(=O)N1 [TJU-B033, (4Z)-4-[(2H-1,3-benzodioxol-5-yl)methylidene]-2-(methylamino)-4,5-dihydro-1H-imidazol-5-one] | < 10 | < 10 | 10 to 50
18 | NC1=N/C(=C\c2ccc3c(c2)OCO3)C(=O)N1 [TJU-B034, (4Z)-2-amino-4-[(2H-1,3-benzodioxol-5-yl)methylidene]-4,5-dihydro-1H-imidazol-5-one] | < 10 | < 10 | 10 to 50
19 | COc1cccc(/C=C2\N=C(N)N(C)C2=O)c1 [TJU-B036, (4Z)-2-amino-4-[(3-methoxyphenyl)methylidene]-1-methyl-4,5-dihydro-1H-imidazol-5-one] | 10 to 50 | < 10 | 10 to 50
20 | CC(C)NC1=N/C(=C\c2ccc3c(c2)OCO3)C(=O)N1 [TJU-B038, (4Z)-4-[(2H-1,3-benzodioxol-5-yl)methylidene]-2-[(propan-2-yl)amino]-4,5-dihydro-1H-imidazol-5-one] | 10 to 50 | 10 to 50 | 10 to 50
21 | O=C1NC(c2ccccc2)=N/C1=C\c1ccc2c(c1)OCO2 [TJU-B039, (4Z)-4-[(2H-1,3-benzodioxol-5-yl)methylidene]-2-phenyl-4,5-dihydro-1H-imidazol-5-one] | < 10 |  | 10 to 50
22 | CCNC1=N/C(=C\c2ccc3c(c2)OCO3)C(=O)N1 [TJU-B040, (4Z)-4-[(2H-1,3-benzodioxol-5-yl)methylidene]-2-(ethylamino)-4,5-dihydro-1H-imidazol-5-one] | 10 to 50 | 10 to 50 | 10 to 50
23 | O=C1NC(Nc2ccccc2)=N/C1=C\c1ccc2c(c1)OCO2 [TJU-B043, (4Z)-4-[(2H-1,3-benzodioxol-5-yl)methylidene]-2-(phenylamino)-4,5-dihydro-1H-imidazol-5-one] | 10 to 50 | 10 to 50 | 10 to 50
24 | CN1C(=O)/C(=C/c2ccccc2)N=C1N [TJU-B045, (4Z)-2-amino-1-methyl-4-(phenylmethylidene)-4,5-dihydro-1H-imidazol-5-one] | < 10 | < 10 | 10 to 50
